Laboratory results reported in PubChem BioAssay AID2627 (Broad Institute, 2010).

Target: Alpha-synuclein (Homo sapiens) (UniProt P37840)
Assay: increase of SNCA protein level in cells – Western blot, H4 cells, dose response (AID 2627)

Q: `c1ccc2c(Nc3nnc(-c4ccncc4)s3)cccc2c1` was tested. Which ECmax did it give?
A: 1000 nM
